Measured values: US8143889B2, “Simultaneous acquisitions of spin- and stimulated-echo planar imaging” (University of Utah Research Foundation, priority 2009, dated 2012)

Assays:
Format in all cases: physicochemical
[1] = T1 mapping of MnCl2/water phantom by inversion-recovery spin-echo (IR-SE) imaging and 2D ss-SGSTEPI; conditions: 3 Tesla
Experimental: (§1) MRI studies were performed on a Siemens Trio 3 Tesla MRI system (Siemens Medical Solutions, Erlangen, Germany) with Avanto gradients (45 mT/m strength and 150 T/m/s slew rate). The pulse sequence was developed based on a singleshot spin-echo EPI sequence, using the IDEA pulse sequence development environment. Realtime calculation of T1 mapping was implemented into a custom-made ICE program (Image Construction Environment). The image construction program produced two magnitude images, two phase images, and a T1 map for each slice.
A phantom was constructed with 4 plastic bottles filled with MnCl2/water solutions with concentrations of 0.05, 0.1, 0.2, and 0.4 mM, which were surrounded by jello. T1 mapping experiment was conducted using inversion-recovery spin-echo (IR-SE) imaging and 2D ss-SGSTEPI. T1 of each concentration of MnCl2/water solution were measured as 1.5, 0.89, 0.55, 0.35 sec for […], respectively.

[2] = T1 of MnCl2/water phantom by saturation-recovery spin-echo; conditions: 3 Tesla
Experimental: as §1
A phantom was constructed with four 20 cc plastic bottles filled with 0.05, 0.1, 0.2, and 0.4 mM MnCl2/water solutions, respectively, and immersed in jello in a rectangular acrylic container with dimensions 8×8×13 cm^3. The T1 of each concentration was 1.3, 0.9, 0.55, 0.35 sec for 0.05, 0.1, 0.2, 0.4 mM, respectively. T1 of the phantom was measured using saturation-recovery spin-echo.

[3] = T1 and turbo-FLASH signal intensity on phantom with different concentrations of Gd-BOPTA
Experimental: The results are plotted in FIG. 12. […] The dosage 0.1˜0.2 mM [PBCA]/kg is the routine dosage for DCE-MRI and local concentrations may easily exceed 0.2˜0.4 mM/kg in organs with high-blood supply or at the periphery of a tumor. The signal behavior of the gradient-echo MRI varies widely with the selection of TR, TE, and flipangle, and for T1. Although a set of these imaging parameters may be linear for a small range of PBCA concentrations and specific T1, it will not be linear for other T1 values. […] Thus, direct conversion of SI to the concentration is subject to large error, which will be propagated into the subsequent kinetic calculation. In contrast, the realtime T1 mapping provided by embodiments of the invention described above is linearly related to the PBCA concentration. Thus, the realtime T1 mapping provides accurate realtime estimation of the PBCA concentration resulting in improvement of the accuracy of drug-delivery or tumor evaluation.

Row | T1 ([1]; 0.05 mM MnCl2/water solution) [s] | T1 ([1]; 0.1 mM MnCl2/water solution) [s] | T1 ([1]; 0.2 mM MnCl2/water solution) [s] | T1 ([1]; 0.5 mM MnCl2/water solution) [s] | T1 ([2]; 0.05 mM MnCl2/water solution) [s] | T1 ([2]; 0.1 mM MnCl2/water solution) [s] | T1 ([2]; 0.2 mM MnCl2/water solution) [s] | T1 ([2]; 0.4 mM MnCl2/water solution) [s] | T1 relaxation rate (1/T1) of the water proton vs. concentration ([3]; FIG. 12(b)) | signal intensities of turboFLASH and spin-EPI vs. concentration ([3]; TR/TE=7.2/2.7 ms, flipangle 30°, FIG. 12(a)) | SMILES
1 | 1.5 | 0.89 | 0.55 | 0.35 | 1.3 | 0.9 | 0.55 | 0.35 |  |  | [Cl][Mn][Cl] [MnCl2]
2 |  |  |  |  |  |  |  |  | very linear with the concentration | non-linear even at low concentration | CNC[C@H](O)[C@@H](O)[C@H](O)[C@H](O)CO.CNC[C@H](O)[C@@H](O)[C@H](O)[C@H](O)CO.O=C([O-])CN(CCN(CC(=O)[O-])CC(=O)O)CCN(CC(=O)O)C(COCc1ccccc1)C(=O)[O-].[Gd+3] (stereo not shown) [Gd-BOPTA, Gadobenate dimeglumine]
